US10702498B2 (priority 2015, dated 2020)
Entries after “also recorded” stand apart in the source; their conditions may differ.

Experiments:
[1] = biological target: T1, μOR β-arrestin2 recruitment (Homo sapiens (Human), UniProt P35372); assay: β-Arrestin2 recruitment without GRK2 co-expression (BRET); type: cell-based
C57BL/6J mice [2] = assay: Tail-flick assay; type: in vivo; conditions: mouse
[3] = tested on: μOR Gi/o versus β-arrestin signaling; assay: Ligand bias calculation (operational model)
mice [4] = assay: Formalin injection assay; type: in vivo; conditions: mouse
mice [5] = assay: Conditioned place preference; type: in vivo; conditions: mouse
Protocol: On day 1 (preconditioning day), mice were placed in the central chamber and allowed to explore freely for 30 minutes. Time spent in each compartment was used to estimate baseline chamber preferences and mice showing specific chamber bias more than 70% were not studied further. On days 2-9 (conditioning days) mice were injected with either vehicle or drug and paired with either the white mesh or the black rod chambers. All mice received vehicle on days 2, 4, 6, 8 and drug on days 3, 5, 7, 9. On day 10 (test day), mice were again placed in the central chamber as on day 1 and allowed to explore freely for 30 minutes. Time spent in each chamber was expressed as percentage preference.

hKOR = hKOR (Homo sapiens (Human), UniProt P41145); assay: Receptor binding, [3H]diprenorphine; conditions: hKOR [3H]dyprenorphine Ki
hKOR, sequence (P41145 whole entry): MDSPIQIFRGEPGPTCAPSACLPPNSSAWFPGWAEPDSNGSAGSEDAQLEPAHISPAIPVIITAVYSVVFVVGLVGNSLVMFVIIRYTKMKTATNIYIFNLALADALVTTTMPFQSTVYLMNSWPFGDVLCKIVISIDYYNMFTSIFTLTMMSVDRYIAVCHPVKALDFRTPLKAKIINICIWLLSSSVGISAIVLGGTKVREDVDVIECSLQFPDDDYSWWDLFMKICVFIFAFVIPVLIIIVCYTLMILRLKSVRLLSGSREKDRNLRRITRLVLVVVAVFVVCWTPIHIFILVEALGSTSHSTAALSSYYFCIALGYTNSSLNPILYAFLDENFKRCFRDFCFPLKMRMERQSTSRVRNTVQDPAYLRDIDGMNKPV

mice [6] = assay: Catalepsy bar test; conditions: mouse
κOR = κOR (Homo sapiens (Human), UniProt P41145); assay: Gi/o Glosensor assay (agonist and antagonist mode)
C57BL/6J mice [7] = assay: Hot-plate analgesia assay; type: in vivo; conditions: mouse
316 other GPCRs = assay: PRESTO-Tango GPCRome β-arrestin recruitment counter-screen; type: cell-based; conditions: 10 μM screen, hits re-tested in full dose-response
From the text: Potential positive receptor hits were defined as those that increase the relative luminescence value by two fold. […] A number of false positive hits were discounted by this approach.

[8] = tested on: Oprm1−/− and wild-type C57Bl/6J mice; assay: Hot-plate: affective/reflexive subcategorization and μOR knockout mice; type: in vivo, mouse
μOR [9] = biological target: T2, μOR (Homo sapiens (Human), UniProt P35372); assay: Calcium release (FLIPR); type: cell-based
T2 sequence (P35372 whole entry): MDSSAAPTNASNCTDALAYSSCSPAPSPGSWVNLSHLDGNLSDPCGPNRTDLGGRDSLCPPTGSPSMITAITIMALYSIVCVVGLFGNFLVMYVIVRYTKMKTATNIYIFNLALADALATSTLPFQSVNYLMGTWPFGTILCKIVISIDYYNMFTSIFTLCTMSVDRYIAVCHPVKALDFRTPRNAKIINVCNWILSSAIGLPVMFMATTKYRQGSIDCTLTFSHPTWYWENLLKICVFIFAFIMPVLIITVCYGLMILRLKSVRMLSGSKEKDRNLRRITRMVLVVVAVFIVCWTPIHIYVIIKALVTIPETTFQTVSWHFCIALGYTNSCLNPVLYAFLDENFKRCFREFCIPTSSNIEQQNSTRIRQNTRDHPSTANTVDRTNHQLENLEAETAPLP
Protocol: Calcium release was measured using a FLIPR^TETRA fluorescence imaging plate reader (Molecular Devices). Calcium release experiments were run in parallel to Gi/o Glosensor experiments with the same HEKT cells transfected with μOR, except cells for FLIPR were plated in poly-lysine coated 384-well black clear bottom cell culture plates. […] Dye was incubated for 1 hour at 37° C. Afterwards, cells were equilibrated to room temperature, and fluorescence in each well was read for the initial 10 seconds to establish a baseline. Afterwards, 10 μL of drug (3×) was added per well and the maximum-fold increase in fluorescence was determined as fold-over-baseline. Drug solutions used for the FLIPR assay were exactly the same as used for Gi/o Glosensor experiments. To activate endogenous Gq-coupled receptors as a positive control for calcium release, TFLLR-NH2 (10 μM, PAR-1 selective agonist) was used.

[10] = biological target: human μOR β-arrestin2 recruitment + GRK2 (Homo sapiens (Human), UniProt P35372); assay: β-Arrestin2 recruitment with GRK2 co-expression (BRET); type: cell-based
mice [11] = assay: Open field locomotor response; conditions: mouse
δOR = δOR (Homo sapiens (Human), UniProt P41143); assay: Gi/o Glosensor assay
hMOR + Gqi5 = hMOR + Gqi5 (Homo sapiens (Human), UniProt P35372); assay: IP accumulation assay; type: cell-based; conditions: % morphine
humanDOR = humanDOR (Homo sapiens (Human), UniProt P41143); assay: Receptor binding, [3H]diprenorphine
humanDOR, sequence (P41143 whole entry): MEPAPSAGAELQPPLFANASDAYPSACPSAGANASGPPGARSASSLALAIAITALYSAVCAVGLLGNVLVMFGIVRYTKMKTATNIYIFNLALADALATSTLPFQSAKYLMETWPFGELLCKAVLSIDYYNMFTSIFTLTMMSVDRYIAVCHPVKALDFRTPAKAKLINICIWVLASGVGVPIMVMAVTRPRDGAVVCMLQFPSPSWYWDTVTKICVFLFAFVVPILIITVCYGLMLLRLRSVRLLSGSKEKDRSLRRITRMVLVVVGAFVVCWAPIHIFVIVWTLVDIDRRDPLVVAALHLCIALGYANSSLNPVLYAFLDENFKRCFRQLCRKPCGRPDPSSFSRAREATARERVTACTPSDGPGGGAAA

[12] = Pharmacokinetics: serum and brain concentrations; type: in vivo; conditions: mouse
Protocol: Studies were performed by the Preclinical Therapeutics Core and the Drug Studies Unit at the University of California San Francisco. […] All studies were performed with approved mouse protocols from the institutional animal care and use committees.

μOR [13] = biological target: T2, μOR; assay: Receptor internalization (PathHunter GPCR internalization, U2OS cells); type: cell-based
nociceptin receptor = nociceptin receptor (Homo sapiens (Human), UniProt P41146); assay: Gi/o Glosensor assay
μOR [14] = biological target: T2, μOR; assay: cell-based; type: cell-based
[15] = biological target: T1, μOR β-arrestin2 recruitment; assay: β-Arrestin recruitment, PathHunter enzyme complementation assay (DiscoveRx OPRM1 CHO-K1); type: cell-based
mice [16] = assay: Accumulated fecal boli quantification (constipation); conditions: mouse
mice [17] = assay: Whole body plethysmography (respiration); conditions: mouse; equianalgesic doses PZM21 40 mg/kg, TRV130 […], morphine 10 mg/kg
μOR [18] = biological target: T2, μOR; assay: biochemical; type: binding
μOR [19] = biological target: T2, μOR; conditions: no Ki given

C[C@@H](Cc1ccsc1)NC(=O)NC[C@H](Cc1ccc(O)cc1)N(C)C [PZM21, 1-[(S)-2-(Dimethylamino)-3-(4-hydroxyphenyl)propyl]-3-((S)-1-(thiophen-3-yl)propan-2-yl)urea]
β-arrestin2 recruitment in the absence of GRK2 [1]: no β-arrestin2 recruitment | tail-flick analgesia (C57BL/6J mice [2]): no activity in a tail flick assay; also recorded: no analgesic effect | signaling bias [3]: undistinguishable from TRV130; also recorded: substantially exceeded that of herkinorin | formalin injection nociception (mice [4]): active in a formalin injection nociception assay | conditioned place preference (mice [5]): does not induce a conditioned place preference response | Ki (hKOR): 33 ± 5.6 nM | cataleptic effect (mice [6]): does not induce cataleptic behavior; also recorded: does not reflect a cataleptic effect | activity at KOR (antagonist mode, words) (κOR): antagonist at KOR | κOR agonist activity (κOR): no detectable KOR or nociceptin receptor agonist activity; also recorded: lack of agonist activity | hot-plate analgesia (C57BL/6J mice [7]; s.c.): dose-dependent analgesia | hot-plate percent maximal possible effect (% MPE) (C57BL/6J mice [7]; 15 minutes after the highest dose tested): 87% | agonism against 316 other GPCRs (316 other GPCRs): no potent activity was confirmed with a full dose-response experiment | analgesia in μOR knockout mice ([8]; hot-plate): genetic knockout of the μOR completely ablates the observed analgesic response | affective versus reflexive component of pain ([8]; mouse hot-plate): only modulates the affective component of pain; also recorded: solely confers analgesia to the affective component of pain | calcium release (μOR [9]): no activity was observed in a calcium release assay | arrestin recruitment with over-expressed GRK2 [10]: weak arrestin recruitment efficacy compared to DAMGO and even to morphine; also recorded: we observe arrestin recruitment | open field locomotion (mice [11]): does not induce open field locomotion; also recorded: no apparent effect on locomotion versus vehicle | Emax (δOR; read-out: Gi/o (Glosensor) Emax (%) δOR): 78% | weaker δOR agonist than μOR agonist (δOR; selectivity): 500 fold | hMOR + Gqi5 IP accumulation assay efficacy a (hMOR + Gqi5): a: 73% | Ki (humanDOR): 470 ± 98 nM | blood brain barrier penetration [12]: substantial fraction of PZM21 crosses the blood brain barrier | μOR internalization (μOR [13]): minimal level of μOR internalization compared to DAMGO and morphine | nociceptin receptor agonist activity (nociceptin receptor): no detectable KOR or nociceptin receptor agonist activity | Gi/o activation / μOR agonist activity (μOR [14]): robust μOR agonist activity | effect on cAMP levels with pertussis toxin (μOR [14]): eliminated by pertussis toxin | β-arrestin2 recruitment in PathHunter assay [15]: undetectable β-arrestin2 recruitment; also recorded: minimal recruitment of β-arrestin2; also recorded: no detectable 3-arrestin2 recruitment | constipation effect / defecation (mice [16]): reduced constipatory effects as compared to morphine; also recorded: substantially less than morphine

COc1ccsc1CNCC[C@@]1(c2ccccn2)CCOC2(CCCC2)C1 [TRV130, reference compound]
β-arrestin2 recruitment in the absence of GRK2 [1]: no β-arrestin2 recruitment | conditioned place preference (mice [5]): not significant relative to vehicle | κOR agonist activity (κOR): activates KOR with similar potency to morphine | arrestin recruitment with over-expressed GRK2 [10]: we observe arrestin recruitment | respiration frequency / respiratory depression (mice [17]): significantly depresses respiration at 15 minutes

CCN1CCC[C@@H](NC(=O)NCCc2ccc(OC(C)C)cc2)C1 [compound 6]
Ki (μOR [18]): 10000 nM

O=C(Cc1cn2ccccc2n1)NCC1(c2ccccc2)CCC1 [compound 9]
μOR binding, given as <50% (μOR [19]): <50%
